Measured values from patent US8183258B2, “Heterocyclic compounds and their uses” (Amgen Inc., priority 2007, dated 2012).
Read-outs that look alike come from different tables or passages of the source.

Tests used:
[1] = tested on: model of systemic lupus erythematosis; conditions: in vivo; cited from earlier work
[2] = tested on: mouse model of rheumatoid arthritis; conditions: in vivo; cited from earlier work
[3] = target: T1, PI3Kδ (Homo sapiens, UniProt O00329); assay: In vitro enzyme assay, residual ATP bioluminescence; assay type: biochemical
T1 construct: Full length p110 subunits of PI3k α, β and δ; polyHis (N); made in house; host or cells: Sf9 insect cells (baculovirus)
Description: Full length p110 subunits of PI3k α, β and δ, N-terminally labeled with polyHis tag, were coexpressed with p85 with Baculo virus expression vectors in sf9 insect cells. P110/p85 heterodimers were purified by sequential Ni-NTA, Q-HP, Superdex-100 chromatography. Purified α, β and δ isozymes were stored at −20° C. in 20 mM Tris, pH 8, 0.2M NaCl, 50% glycerol, 5 mM DTT, 2 mM Na cholate. Truncated PI3Kγ, residues 114-1102, N-terminally labeled with polyHis tag, was expessed with Baculo virus in Hi5 insect cells. The γ isozyme was purified by sequential Ni-NTA, Superdex-200, Q-HP chromatography. The γ isozyme was stored frozen at −80° C. in NaH2PO4, pH 8, 0.2M NaCl, 1% ethylene glycol, 2 mM β-mercaptoethanol.
Assays were performed in 25 μL with the above final concentrations of components in white polyproplyene plates (Costar 3355). Phospatidyl inositol phosphoacceptor, PtdIns(4,5)P2 P4508, was from Echelon Biosciences. The ATPase activity of the alpha and gamma isozymes was not greatly stimulated by PtdIns(4,5)P2 under these conditions and was therefore omitted from the assay of these isozymes. Test compounds were dissolved in dimethyl sulfoxide and diluted with three-fold serial dilutions. The compound in DMSO (1 μL) was added per test well, and the inhibition relative to reactions containing no compound, with and without enzyme was determined. After assay incubation at room temperature, the reaction was stopped and residual ATP determined by addition of an equal volume of a commercial ATP bioluminescence kit (Perkin Elmer EasyLite) according to the manufacturer's instructions, and detected using a AnalystGT luminometer.

[4] = tested on: protein kinases; conditions: cited from earlier work
[5] = target: T2, p110δ (Homo sapiens, UniProt O00329); conditions: cited from earlier work
T2 sequence (O00329 1-1044): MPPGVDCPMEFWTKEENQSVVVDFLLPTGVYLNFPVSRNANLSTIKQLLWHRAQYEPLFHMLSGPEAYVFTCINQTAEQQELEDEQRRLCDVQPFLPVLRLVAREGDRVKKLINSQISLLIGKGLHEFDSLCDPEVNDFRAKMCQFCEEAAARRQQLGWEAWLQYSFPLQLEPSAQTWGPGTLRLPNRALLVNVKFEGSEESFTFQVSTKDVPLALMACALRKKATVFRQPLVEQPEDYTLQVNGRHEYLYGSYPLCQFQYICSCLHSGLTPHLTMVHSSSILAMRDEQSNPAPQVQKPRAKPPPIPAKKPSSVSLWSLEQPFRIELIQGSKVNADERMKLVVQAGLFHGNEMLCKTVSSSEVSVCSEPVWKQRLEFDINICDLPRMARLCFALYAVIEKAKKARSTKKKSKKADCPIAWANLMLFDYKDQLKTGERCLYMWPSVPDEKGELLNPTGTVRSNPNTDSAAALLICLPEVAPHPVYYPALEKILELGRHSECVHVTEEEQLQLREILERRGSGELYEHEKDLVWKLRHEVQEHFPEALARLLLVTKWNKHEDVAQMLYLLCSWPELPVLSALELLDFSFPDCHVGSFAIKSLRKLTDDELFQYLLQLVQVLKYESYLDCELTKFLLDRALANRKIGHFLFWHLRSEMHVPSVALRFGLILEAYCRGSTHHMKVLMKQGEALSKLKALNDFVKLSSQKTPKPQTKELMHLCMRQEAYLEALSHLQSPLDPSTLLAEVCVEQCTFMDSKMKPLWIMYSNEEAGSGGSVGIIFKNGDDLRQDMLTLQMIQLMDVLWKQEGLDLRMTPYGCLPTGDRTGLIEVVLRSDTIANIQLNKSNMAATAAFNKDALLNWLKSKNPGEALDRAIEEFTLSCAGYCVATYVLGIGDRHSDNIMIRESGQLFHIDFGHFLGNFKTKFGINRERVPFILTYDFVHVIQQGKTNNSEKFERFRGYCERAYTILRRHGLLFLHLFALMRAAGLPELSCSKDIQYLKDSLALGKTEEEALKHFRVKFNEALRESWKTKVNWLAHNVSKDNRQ

[6] = tested on: ovalbumin-induced airway inflammation; conditions: cited from earlier work
[7] = tested on: passive cutaneous anaphylaxis (PCA); conditions: absence of functional delta (compound or p110δ D910A mice); cited from earlier work

T1 sequence (P27986 whole entry partner, one chain of several): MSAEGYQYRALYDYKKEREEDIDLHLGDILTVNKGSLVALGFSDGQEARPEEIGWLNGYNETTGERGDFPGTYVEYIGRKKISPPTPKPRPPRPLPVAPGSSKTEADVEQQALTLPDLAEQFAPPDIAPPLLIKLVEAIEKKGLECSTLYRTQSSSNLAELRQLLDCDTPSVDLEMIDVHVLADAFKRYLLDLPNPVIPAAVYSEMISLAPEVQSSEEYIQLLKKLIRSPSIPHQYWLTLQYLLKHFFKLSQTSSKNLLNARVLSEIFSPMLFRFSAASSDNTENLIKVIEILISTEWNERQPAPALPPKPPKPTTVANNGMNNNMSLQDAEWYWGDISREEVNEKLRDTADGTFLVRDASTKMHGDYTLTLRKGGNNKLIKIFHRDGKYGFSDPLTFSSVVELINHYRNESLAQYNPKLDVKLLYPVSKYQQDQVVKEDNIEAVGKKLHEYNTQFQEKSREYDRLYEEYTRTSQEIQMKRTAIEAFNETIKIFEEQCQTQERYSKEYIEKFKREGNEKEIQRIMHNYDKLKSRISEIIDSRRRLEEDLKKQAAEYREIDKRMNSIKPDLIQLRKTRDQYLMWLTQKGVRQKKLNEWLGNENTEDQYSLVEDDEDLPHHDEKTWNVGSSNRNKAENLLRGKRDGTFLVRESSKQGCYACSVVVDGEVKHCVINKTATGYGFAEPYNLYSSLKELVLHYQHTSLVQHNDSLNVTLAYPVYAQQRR

## O=C1NC(=O)/C(=C\c2ccc3nccnc3c2)S1 [AS 605240]
[1]
  onset of disease in a model of systemic lupus erythematosis: delay onset of disease
[2]
  efficacy in a mouse model of rheumatoid arthritis: efficacious

## Cc1cccc2cc(CNc3nc(N)ncc3Cl)c(-c3ccccc3Cl)nc12 [Example 1, 5-Chloro-N4-((2-(2-chlorophenyl)-8-methylquinolin-3-yl)methyl)pyrimidine-2,4-diamine]
[3]; read-out: PI3Kδ IC50
  IC50: 165 nM

## Nc1cc(NCc2cc3cccc(Cl)c3nc2-c2ccccc2Cl)ncn1 [Example 2, N4-((8-Chloro-2-(2-chlorophenyl)quinolin-3-yl)-methyl)pyrimidine-4,6-diamine]
[3]; read-out: PI3Kδ IC50
  IC50: 6870 nM

## Cc1cccc2cc(CNc3nc(N)ncc3C(F)(F)F)c(-c3ccccc3Cl)nc12 [Example 3, N4-((2-(2-chlorophenyl)-8-methylquinolin-3-yl)methyl)-5-(trifluoromethyl)pyrimidine-2,4-diamine]
[3]; read-out: PI3Kδ IC50
  IC50: 127 nM

## Cc1cccc2cc(CNc3ncc(C(F)(F)F)c(N)n3)c(-c3ccccc3Cl)nc12 [Example 4, N2-((2-(2-chlorophenyl)-8-methylquinolin-3-yl)methyl)-5-(trifluoromethyl)pyrimidine-2,4-diamine]
[3]; read-out: PI3Kδ IC50
  IC50: 2820 nM

## NC(=O)c1cc(NS(=O)(=O)c2cc3cccc(Cl)c3nc2-c2ccccc2Cl)ccn1 [Example 7, 4-(8-chloro-2-(2-chlorophenyl)quinoline-3-sulfonamido)picolinamide]
[3]; table after the in vitro enzyme assays, isoform and unit inferred, read-out: IC50
  IC50: > 40000 nM

## Cc1ccccc1-n1c(Cn2cnc3c(N)ncnc32)nc2cccc(C)c2c1=O [IC87114]
[4]
  activity against any protein kinases tested: no activity
[5]
  inhibition of p110δ: high nanomolar range (triple digit)
[6]
  inflammation and disease in a murine model of asthma: significantly ameliorate inflammation and disease
[7]
  passive cutaneous anaphylaxis (PCA): significantly reduced
